Series [1] relates to glycine binding site of the NMDA receptor. The note with it: cited from earlier work.
For series [2] the following is noted: in vivo; cited from earlier work.
For the next series, the system named is rodents. To be noted: rodents / animal models; cited from earlier work.
A further series deals with pigeons. The note with it: cited from earlier work.
Series [3] deals with T1, NMDA receptor glycine site (Rattus norvegicus, UniProt P35439).
T1 construct: from tissue; host or cells: rat brain membranes
In words: inhibition of [3H]DCKA binding to rat brain membranes. How it is done:
(§1) The affinity of the compounds for the NMDA receptor glycine site also was measured by inhibition of [^3 H]DCKA binding to rat brain membranes. See, Canton, T. et al., J. Pharm. Pharmacol. 44:812-816 (1992).

For a further series, the system named is mice. The series can be described thus: maximum electroshock-induced seizure (MES) assay in mice. It is filed as in vivo, male Swiss/Webster mice. To be noted: Mus musculus, iv, drug applied i.v. as an aqueous basic solution, read-out: ED50 as an anticonvulsant in a MES experiment in mice. From the text:
The anticonvulsant activity of the glycine antagonists may be assessed in the maximum electroshock-induced seizure (MES) assay in mice. Electroshock was applied to male Swiss/Webster mice (20-30 g, Simonsen) through corneal electrodes (Swinyard, E. A., in Anticonvulsant Drugs, Mercier, J., ed., Pergamon Press, Oxford (1973), pp. 47-65). The seizure stimulus parameters were: 50 mA, 60 Hz, rectangular pulse, width 0.8 msec, duration 200 msec. Tonic hind limb extension observed after application of the electrical stimulus was recorded as occurrence of seizure. The drug was applied i.v. as an aqueous basic solution.

A further series addresses T2, glycine/NMDA receptor (Rattus norvegicus, UniProt P35439).
T2 construct: rat brain membrane homogenates that are enriched in NMDA receptors; tissue Pel-Freez, Rogers, Ark; host or cells: frozen rat brain, membrane homogenate
The series can be described thus: affinity at the glycine/NMDA receptor. It is filed as binding. How it is done: as §1
The glycine antagonist potency in vitro may be determined using a 1 μM glycine-stimulated [^3 H]-MK801 binding assay. This assay takes advantage of the fact that the binding of [^3 H]-MK801 to the PCP receptor inside the pore of the NMDA channel is dependent on the presence of both glutamate and glycine. […]
The assay is conducted using rat brain membrane homogenates that are enriched in NMDA receptors. […] The final pellet is suspended in three volumes of 50 mM HEPES, pH 7.4 and the protein concentration is determined with a standard dye-binding protein assay (Bio-Rad, Richmond, Calif.). […]
On the day of the assay, the previously prepared membranes are thawed and 5 mM Tris/HCl buffer, pH 7.4, is added to yield a final protein concentration of 0.156 mg/mL. […] To determine the effect of 1 μM glycine on the binding of [^3 H]-MK801, bound radioactivity in the presence of 10 μM glutamate alone (final concentration) is subtracted from the bound radioactivity in the presence of both 10 μM glutamate and 1 μM glycine (final concentration). […]

The next series concerns the target PCP receptor. To be noted: Wong et al., PNAS 83:7104-7108 (1986); cited from earlier work.
Another series is described as follows: log P (literature). To be noted: from benzene to the named substance. It is filed as physicochemical.

With `O=c1[nH]c2ccccc2c(O)c1[N+](=O)[O-]` [4-hydroxy-3-nitro-1,2-dihydroquinolin-2-one], the “binding affinity for the glycine site (in words)” value (from here on “binding affinity”) in [1] is recorded as “high binding to the glycine receptor”.
For `O=C(O)c1cc(O)c2c(Cl)cc(Cl)cc2n1` [5,7-dichlorokynurenic acid], in [1], the “binding affinity” value is “relatively high receptor binding affinity in vitro”. The blood/brain barrier penetration result in series [2] was “cannot penetrate the blood/brain barrier”.
For the compound `c1ccc(C2(N3CCCCC3)CCCCC2)cc1` [PCP, phencyclidine], the PCP-like behavioral effects entry with rodents was “behavioral excitation (hyperlocomotion) in rodents”. The katalepsy in pigeons result in the series with pigeons is recorded as “characteristic katalepsy in pigeons”.
For `NC1CCN(O)C1=O` (stereo not drawn) [HA-966], the “binding affinity” value in series [1] is listed as “partial agonist with micromolar affinity for the glycine binding site”. In addition, the blood/brain barrier penetration entry in [2] was “sufficiently penetrates the blood/brain barrier”.
Take `O=C(O)c1cc2ccccc2[nH]1` [indole-2-carboxylic acid]: the “binding affinity” value in series [1] was “relatively high receptor binding affinity in vitro”. Also, in series [2], the blood/brain barrier penetration result is reported as “cannot penetrate the blood/brain barrier”.
`N#Cc1c(=O)[nH]c2cc(Cl)c(Cl)cc2[n+]1[O-]` [3-Cyano-6,7-dichloro-1,2-dihydroquinoxaline-2-one-4-oxide] returned an IC50 in series [3] of 135 nM. Further, the ED50 with mice worked out at 5 mg/kg.
Take `Oc1nc2cc(Cl)cnc2c(O)c1-c1cccc(Oc2ccccc2)c1` [5-Aza-7-chloro-4-hydroxy-3-(m-phenoxyphenyl)quinolin-2-one]: the Ki on glycine/NMDA receptor amounted to 5 nM. In the series on mice, the 50% effective dose (ED50) came out at 3 mg/kg.
On to `C[C@]12N[C@H](Cc3ccccc31)c1ccccc12` [MK-801], for which the Kd at PCP receptor is roughly 3 nM.
As for `NCC(=O)O` [glycine], the Kd in series [1] (used in Cheng and Prusoff equation, read-out: known affinity for the glycine binding site of the NMDA receptor) is 100 nM.
Take `[O-][n+]1ccccc1` [pyridine N-oxide]: the “difference in log P from benzene” value in “log P (literature)” is -3.84.
For `O=C(O)c1cc(O)c2ccc(Cl)cc2n1` [7-Cl-kynurenic acid], in series [1], the “binding affinity” value was “relatively high receptor binding affinity in vitro”. The blood/brain barrier penetration result in [2] is on record as “cannot penetrate the blood/brain barrier”.

One may read the IC50 as the concentration at which inhibition is half-maximal. Read a low IC50 as inhibition by little substance. As a reminder, the ED50 is the midpoint of the dose-response relation. Broadly, the Ki is the dissociation constant of the complex between target and ligand, obtained from inhibition or displacement. A low value points to tighter binding.

These data come from patent US5801183A, “Aza and aza (N-oxy) analogs of glycine/NMDA receptor antagonists” (priority 1995, dated 1998).
